Assay results: the supplement of paper PMC10307832

Columns and labels:
Experiment in all cases: relative viability (nuclei count vs DMSO), 5 days (fraction); higher = more cells survive
[1] = system: BEN
In short: (§1)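 Medians of duplicate plates are given as relative viability. That measure is the nuclei count in treated wells divided by the count in vehicle wells. Counts were taken on 4× images of lung cancer cell lines in 1536-well plates, 5 days after pin-tool dosing the day after seeding with one drug alone or a fixed anchor-drug dose plus five library-drug doses (not always all listed) in √10 steps.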

[2] = system: ChaGo-K-1
In short: as §1

[3] = system: EKVX
In short: as §1

[4] = system: HCC-827
In short: as §1

[5] = system: HOP-62
In short: as §1

[6] = system: LCLC-103H
In short: as §1

[7] = system: LK-2
In short: as §1

[8] = system: LOU-NH91
In short: as §1

[9] = system: LXF-289
In short: as §1

[10] = system: NCI-H1355
In short: as §1

[11] = system: NCI-H1437
In short: as §1

[12] = system: NCI-H1666
In short: as §1

[13] = system: NCI-H1944
In short: as §1

[14] = system: NCI-H1993
In short: as §1

[15] = system: NCI-H2126
In short: as §1

[16] = system: NCI-H2170
In short: as §1

[17] = system: NCI-H441
In short: as §1

[18] = system: NCI-H647
In short: as §1

[19] = system: NCI-H661
In short: as §1

[20] = system: NCI-H727
In short: as §1

[21] = system: PC-14
In short: as §1

[22] = system: RERF-LC-KJ
In short: as §1

[23] = system: SK-MES-1
In short: as §1

Work on Cc1cn(-c2cc(NC(=O)c3ccc(C)c(Nc4nccc(-c5cccnc5)n4)c3)cc(C(F)(F)F)c2)cn1 [Nilotinib] + CC(=O)Nc1cccc(-n2c(=O)n(C3CC3)c(=O)c3c(Nc4ccc(I)cc4F)n(C)c(=O)c(C)c32)c1 [Trametinib] (partner 0.02 µM) yielded a relative viability ([1]; first compound 0.001 µM) of 0.98, a relative viability ([1]; first compound 0.003162 µM) of 0.931 and a relative viability ([1]; first compound 0.01 µM) of 1.01. The relative viability ([1]; first compound 0.03162 µM) was 0.954, the relative viability ([1]; first compound 0.1 µM) was 1.15 and the relative viability ([2]; first compound 0.001 µM) was 0.824. It also gave a relative viability ([2]; first compound 0.003162 µM) of 1.15, a relative viability ([2]; first compound 0.01 µM) of 1.03 and a relative viability ([2]; first compound 0.03162 µM) of 0.804. For the same compound, the relative viability ([2]; first compound 0.1 µM) was 0.869, the relative viability ([3]; first compound 0.001 µM) was 0.336 and the relative viability ([3]; first compound 0.003162 µM) was 0.351. For the same compound, the relative viability ([3]; first compound 0.01 µM) was 0.352, the relative viability ([3]; first compound 0.03162 µM) was 0.355 and the relative viability ([3]; first compound 0.1 µM) was 0.734. It also gave a relative viability ([4]; first compound 0.001 µM) of 0.593, a relative viability ([4]; first compound 0.003162 µM) of 0.523 and a relative viability ([4]; first compound 0.03162 µM) of 0.542. For the same compound, the relative viability ([4]; first compound 0.1 µM) was 0.469, the relative viability ([5]; first compound 0.001 µM) was 0.387 and the relative viability ([5]; first compound 0.003162 µM) was 0.364. The relative viability ([5]; first compound 0.1 µM) was 0.277, the relative viability ([6]; first compound 0.001 µM) was 0.588 and the relative viability ([6]; first compound 0.003162 µM) was 0.773. It also gave a relative viability ([6]; first compound 0.01 µM) of 0.75, a relative viability ([6]; first compound 0.03162 µM) of 0.579 and a relative viability ([6]; first compound 0.1 µM) of 0.728. The relative viability ([7]; first compound 0.001 µM) was 0.514, the relative viability ([7]; first compound 0.003162 µM) was 0.515 and the relative viability ([7]; first compound 0.01 µM) was 0.687. The relative viability ([7]; first compound 0.03162 µM) was 0.46, the relative viability ([7]; first compound 0.1 µM) was 0.608 and the relative viability ([8]; first compound 0.001 µM) was 0.799. It also gave a relative viability ([8]; first compound 0.003162 µM) of 0.818, a relative viability ([8]; first compound 0.01 µM) of 0.846 and a relative viability ([8]; first compound 0.03162 µM) of 0.77. The relative viability ([8]; first compound 0.1 µM) was 0.765, the relative viability ([9]; first compound 0.001 µM) was 0.686 and the relative viability ([9]; first compound 0.003162 µM) was 0.699. The relative viability ([9]; first compound 0.01 µM) was 0.701, the relative viability ([9]; first compound 0.03162 µM) was 0.577 and the relative viability ([9]; first compound 0.1 µM) was 0.466. For the same compound, the relative viability ([10]; first compound 0.001 µM) was 0.378, the relative viability ([10]; first compound 0.003162 µM) was 0.469 and the relative viability ([10]; first compound 0.01 µM) was 0.44. It also gave a relative viability ([10]; first compound 0.03162 µM) of 0.356, a relative viability ([10]; first compound 0.1 µM) of 0.307 and a relative viability ([11]; first compound 0.001 µM) of 0.445. For the same compound, the relative viability ([11]; first compound 0.003162 µM) was 0.541, the relative viability ([11]; first compound 0.01 µM) was 0.631 and the relative viability ([11]; first compound 0.03162 µM) was 0.382. It also gave a relative viability ([11]; first compound 0.1 µM) of 0.429, a relative viability ([12]; first compound 0.001 µM) of 0.843 and a relative viability ([12]; first compound 0.003162 µM) of 0.689. The relative viability ([12]; first compound 0.01 µM) was 0.638, the relative viability ([12]; first compound 0.03162 µM) was 0.766 and the relative viability ([12]; first compound 0.1 µM) was 0.746. It also gave a relative viability ([13]; first compound 0.001 µM) of 0.378, a relative viability ([13]; first compound 0.003162 µM) of 0.415 and a relative viability ([13]; first compound 0.01 µM) of 0.39. For the same compound, the relative viability ([13]; first compound 0.03162 µM) was 0.383, the relative viability ([13]; first compound 0.1 µM) was 0.322 and the relative viability ([14]; first compound 0.001 µM) was 0.47. For the same compound, the relative viability ([14]; first compound 0.003162 µM) was 0.522, the relative viability ([14]; first compound 0.01 µM) was 0.477 and the relative viability ([14]; first compound 0.03162 µM) was 0.507. The relative viability ([14]; first compound 0.1 µM) was 0.494, the relative viability ([15]; first compound 0.001 µM) was 0.521 and the relative viability ([15]; first compound 0.003162 µM) was 0.647. It also gave a relative viability ([15]; first compound 0.01 µM) of 0.647, a relative viability ([15]; first compound 0.03162 µM) of 0.551 and a relative viability ([15]; first compound 0.1 µM) of 0.554. The relative viability ([16]; first compound 0.001 µM) was 0.816, the relative viability ([16]; first compound 0.003162 µM) was 1.23 and the relative viability ([16]; first compound 0.01 µM) was 1.1. It also gave a relative viability ([16]; first compound 0.03162 µM) of 0.842, a relative viability ([16]; first compound 0.1 µM) of 0.868 and a relative viability ([17]; first compound 0.001 µM) of 0.437. For the same compound, the relative viability ([17]; first compound 0.003162 µM) was 0.569, the relative viability ([17]; first compound 0.01 µM) was 0.468 and the relative viability ([17]; first compound 0.03162 µM) was 0.299. It also gave a relative viability ([17]; first compound 0.1 µM) of 0.37, a relative viability ([18]; first compound 0.001 µM) of 0.363 and a relative viability ([18]; first compound 0.003162 µM) of 0.614. The relative viability ([18]; first compound 0.01 µM) was 0.352, the relative viability ([18]; first compound 0.03162 µM) was 0.18 and the relative viability ([18]; first compound 0.1 µM) was 0.254. The relative viability ([19]; first compound 0.001 µM) was 0.49, the relative viability ([19]; first compound 0.003162 µM) was 0.593 and the relative viability ([19]; first compound 0.01 µM) was 0.606. It also gave a relative viability ([19]; first compound 0.03162 µM) of 0.407, a relative viability ([19]; first compound 0.1 µM) of 0.367 and a relative viability ([20]; first compound 0.001 µM) of 0.405. The relative viability ([20]; first compound 0.003162 µM) was 0.388, the relative viability ([20]; first compound 0.01 µM) was 0.355 and the relative viability ([20]; first compound 0.03162 µM) was 0.368. For the same compound, the relative viability ([20]; first compound 0.1 µM) was 0.345, the relative viability ([21]; first compound 0.001 µM) was 0.671 and the relative viability ([21]; first compound 0.003162 µM) was 1.14. The relative viability ([21]; first compound 0.01 µM) was 0.708, the relative viability ([21]; first compound 0.03162 µM) was 0.448 and the relative viability ([21]; first compound 0.1 µM) was 0.526. For the same compound, the relative viability ([22]; first compound 0.001 µM) was 0.79, the relative viability ([22]; first compound 0.003162 µM) was 0.985 and the relative viability ([22]; first compound 0.01 µM) was 0.985. For the same compound, the relative viability ([22]; first compound 0.03162 µM) was 0.764, the relative viability ([22]; first compound 0.1 µM) was 0.811 and the relative viability ([23]; first compound 0.001 µM) was 0.581. It also gave a relative viability ([23]; first compound 0.003162 µM) of 0.482, a relative viability ([23]; first compound 0.01 µM) of 0.492 and a relative viability ([23]; first compound 0.03162 µM) of 0.437. For the same compound, the relative viability ([23]; first compound 0.1 µM) was 0.339.
